Data reported in patent US20060084135A1, “Compositions for manipulating the lifespan and stress response of cells and organisms” (priority 2003, published 2006).

Tests used:
[1] = target: T1, human recombinant SIRT2 (Homo sapiens, UniProt Q8IXJ6); experiment: SIRT2 deacetylation assay (Fluor de Lys-SIRT2); format: biochemical; details: increasing concentrations; 25 μM Fluor de Lys-SIRT2, 25 μM NAD+
T1 sequence (Q8IXJ6 1-389): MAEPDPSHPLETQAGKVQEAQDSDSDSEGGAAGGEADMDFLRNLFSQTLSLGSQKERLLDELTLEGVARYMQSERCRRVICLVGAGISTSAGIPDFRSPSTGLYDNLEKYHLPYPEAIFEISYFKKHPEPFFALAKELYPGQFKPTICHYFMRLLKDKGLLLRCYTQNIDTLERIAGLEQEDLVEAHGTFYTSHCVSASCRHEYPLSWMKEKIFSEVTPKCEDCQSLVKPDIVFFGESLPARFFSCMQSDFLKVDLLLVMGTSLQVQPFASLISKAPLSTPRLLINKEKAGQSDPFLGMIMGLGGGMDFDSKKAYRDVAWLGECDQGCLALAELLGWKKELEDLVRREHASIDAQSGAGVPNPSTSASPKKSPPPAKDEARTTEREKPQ
From the text: Yeast Sir2 and human SIRT1 are very homologous and differ from human SIRT2 by the addition of an N-terminal domain that is absent in SIRT2. […] Thus, based on the difference in structure of SIRT1 and SIRT2, i.e., the absence of an N-terminal domain, it is believed that the N-terminal domain of SIRT1 and Sir2 is necessary for activation by the compounds described herein. In particular, it is likely that the activator compounds described herein interact with the N-terminal portion of sirtuins. The N-terminal portion of SIRT1 that is necessary for the action of the compounds is from about amino acid 1 to about amino acid 176, and that of Sir2 is from about amino acid 1 to about amino acid 175.

[2] = tested on: S. cerevisiae; experiment: Yeast replicative lifespan; format: cell-based

Oc1ccc(/C=C/c2cc(O)cc(O)c2)cc1 [Resveratrol, 3,5,4′-Trihydroxy-trans-stilbene]
Effect on SIRT2 activity [1]: decrease | Extension of the lifespan of a pnc1 null mutant ([2]; pnc1 null mutant): nearly as well as it did wild type cells | Lifespan benefit of concentrations higher than 10 μM ([2]; resveratrol 100 μM, 500 μM): no added lifespan benefit | Effect on the lifespan of a sir2 null mutant ([2]; sir2 null mutant): no effect
